species on record: Rattus norvegicus; assay: Concentration that produces 50% displacement of [3H]-kainic acid from nerve cell membrane receptor sites; type: functional

SMILES | IC50 [nM]
C/C(=C\c1cccc([N+](=O)[O-])c1)C1CN[C@H](C(=O)O)C1CC(=O)O (some centres undefined) | 79.4
C/C(=C/c1cccc([N+](=O)[O-])c1)C1CN[C@H](C(=O)O)C1CC(=O)O (some centres undefined) | 417
CC(C)[C@H]1CN[C@H](C(=O)O)[C@H]1CC(=O)O [DIHYDROKAINATE] | 646
C=C(C)[C@H]1CN[C@H](C(=O)O)[C@H]1CC(=O)O [KAINIC ACID] | 17.8

— ChEMBL document CHEMBL1122597, “Palladium (II)-catalyzed olefin-coupling reactions of kainic acid: effects of substitution on the isopropenyl group on receptor binding” (J Med Chem, 1984)
